Read-outs that look alike come from different tables or passages of the source.
Key:
[1] = molecular target: T1, CB1 receptor (Rattus norvegicus, UniProt P20272); experiment: Radioligand displacement in whole rat brain (CB1) membrane preparations; type: binding
T1 construct: Whole rat brains or dissected regions from live CD rats; tissue Charles River or Pel-Freez Biologicals; host or cells: whole rat brain (CD rats), P2 membrane
Outline: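 Washed P2 membranes from whole rat brain (ca. 0.2 mg/mL) in 50 mM Tris.HCl, 1 mM EDTA, 3 mM MgCl2, pH 7.4 were incubated with radioligand and compound for 1 h at 30 °C, then filtered. IC50 values came from one- or two-site nonlinear fits and were converted to Ki by Cheng-Prusoff. Duplicates were run across 3–6 experiments.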

[2] = molecular target: T2, human CB2 receptor (Homo sapiens, UniProt P34972); experiment: Displacement of 3H-CP55,940 in human CB2 receptor-transfected cells (CHO-K1); type: binding; conditions: radioligand 3H-CP55940, Tables 6 and 7
T2 construct: expressed in transfected cells; host or cells: CHO-K1
Procedure: Human CB2 receptor affinity. The relative selectivity of the analogs for CB1 versus CB2 receptors varied modestly regardless of the structural modifications examined to date.
Methods—binding assay in transfected cell lines. The methods used for performing binding assays in transfected cells expressing human CB1 or CB2 receptors are those used above. The CB1 receptor involved a HEK-293 expression system whereas the CB2 receptor was expressed in CHO-K1 cells. […] The incubations and separations were then performed as described above for rat brain membrane preparations.
Data analysis. Saturation and displacement data were analyzed by unweighted nonlinear regression of receptor binding data. For displacement studies, curve-fitting and IC50 calculation were done with GraphPad Prism (GraphPad Software, Inc., San Diego, Calif.), which fits the data to one and two-site models and compares the two fits statistically. A similar approach was used for the analysis of isotherm data for calculation of Kd's. A two-site fit was accepted only if it was statistically significant (p<0.05) and the following results were not observed:
IC50 values were then converted to Ki values by reported methods (Cheng and Prusoff, 1973). The statistical evaluation of curve-fitting data allowed for a non-arbitrary conclusion based on the displacement data.

[3] = molecular target: T3, G-protein-linked cannabinoid receptors (Rattus norvegicus, UniProt P20272); experiment: GTP-γ-[35S] binding in whole rat brain; type: biochemical; conditions: for Emax: read-out: Emax, GTP-γ-[35S] in Whole Rat Brain
T3 construct: tissue Charles River or Pel-Freez Biologicals; host or cells: whole rat brain crude membrane homogenate
Excerpt: Cannabinoid receptor-mediated alteration in GTP-γ-[^35S] binding.
Introduction. The purpose of this assay was to characterize the functional activity of lead compounds identified by the radioligand competition binding assays described above. Data from the GTP-γ-[^35S] binding assay was used to determine if a compound was an agonist, antagonist or inverse agonist at G-protein-linked cannabinoid receptors. Agonist binding to a G-protein-linked receptor results in an increased affinity of the G-protein α-subunit for GTP relative to GDP. Eventually, an active αGTP complex forms to complete the stimulus-effector coupling. The α-subunit has intrinsic GTPase activity which generates a free α-subunit which can recombine with the β- and γ-subunits readying the G-protein for another signal transduction cycle. In the current assay, GTP-γ-[^35S] cannot be hydrolyzed by the α-subunit. Thus, the amount of bound GTP-γ-[^35S] is a marker for G-protein activation. In this assay, an agonist increases basal GTP-γ-[^35S] binding, an inverse agonist decreases basal binding and basal binding would be unaffected by an antagonist.
Experimental Design. The specific binding of GTP-γ-[^35S], in the absence of test compound, was termed “basal” activity. Test compounds were characterized as agonist, antagonist, or inverse agonist based on their effect on basal activity. […] The concentrations spanned two orders of magnitude because affinity may not be related to efficacy. […] Effects of the test compounds are reported as the percent change from basal. More thorough dose-response analysis may be run to determine, for example, if a compound is a full or partial agonist.
Methods. […] In a final volume of 0.5 mL, each assay tube contained: 0.02 mg crude membrane homogenate (0.1 mL), 200 μM GDP (0.05 mL; to reduce basal G-protein activity), 0.1 nM GTP-γ-[^35S] (0.05 mL) and several concentrations of test compound (0.05 mL) or an equivalent volume of vehicle (used for determination of total binding). Nonspecific binding was determined in the presence of 100 μM unlabeled GTP-γ-S (0.05 mL). Duplicate samples were incubated for 1 h at 30° C. Since this assay is amenable for use with high throughput screening methods, the binding assays were run using a 96-well plate format. Specific binding was calculated as total binding-nonspecific binding.

[4] = molecular target: T4, human CB1 receptor (Homo sapiens, UniProt P21554); experiment: Radioligand displacement in human CB1 receptor-transfected cells (HEK-293); type: binding
T4 construct: expressed in transfected cells; host or cells: HEK-293
Outline: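 Radioligand displacement was run on HEK-293 cells expressing human CB1, with incubation and separation as for rat brain membranes. IC50 values came from one- or two-site nonlinear regression and were converted to Ki by Cheng-Prusoff.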

[5] = Ki, displacement of 3H-SR141716A, whole rat brain membranes, radioligand 3H-SR141716A, Tables 1 and 2
[6] = whole rat brain membranes, radioligand 3H-SR141716A, Tables 1 and 2
[7] = Ki, displacement of 3H-CP55940, human CB2 transfected cells
[8] = whole rat brain membranes, effects reported as percent change from basal
[9] = whole rat brain membranes, inverse agonist/antagonist activity, read-out: EC50, GTP-γ-[35S] in Whole Rat Brain
[10] = read-out: Ki, displacement of 3H-CP55940, whole rat brain membranes, radioligand 3H-CP55940, Tables 1 and 2
[11] = whole rat brain membranes, radioligand 3H-CP55940, Tables 1 and 2
[12] = read-out: Ki, displacement of 3H-SR141716A, whole rat brain membranes, radioligand 3H-SR141716A, Tables 1 and 2
[13] = displacement of 3H-CP55940, human CB1 transfected cells, radioligand 3H-CP55940, Table 3
[14] = displacement of 3H-SR141716A, human CB1 transfected cells, radioligand 3H-SR141716A, Table 3
[15] = human CB1 transfected cells, radioligand 3H-CP55940, Table 3
[16] = human CB1 transfected cells, radioligand 3H-SR141716A, Table 3
[17] = human CB1 transfected cells, radioligand 3H-WIN55212-2, Table 3
[18] = read-out: Ki, displacement of 3H-CP55940, human CB2 transfected cells

T2 sequence (P34972 whole entry): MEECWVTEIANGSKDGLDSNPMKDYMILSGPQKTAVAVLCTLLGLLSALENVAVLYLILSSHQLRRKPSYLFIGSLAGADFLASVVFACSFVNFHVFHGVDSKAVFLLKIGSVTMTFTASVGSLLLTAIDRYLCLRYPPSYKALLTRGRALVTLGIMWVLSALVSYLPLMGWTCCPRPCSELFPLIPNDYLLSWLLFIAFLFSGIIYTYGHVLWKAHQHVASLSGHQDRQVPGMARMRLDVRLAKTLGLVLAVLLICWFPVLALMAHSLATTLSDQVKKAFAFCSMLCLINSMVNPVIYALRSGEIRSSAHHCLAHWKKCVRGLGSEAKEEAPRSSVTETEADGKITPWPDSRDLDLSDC
T1 sequence (P20272 whole entry): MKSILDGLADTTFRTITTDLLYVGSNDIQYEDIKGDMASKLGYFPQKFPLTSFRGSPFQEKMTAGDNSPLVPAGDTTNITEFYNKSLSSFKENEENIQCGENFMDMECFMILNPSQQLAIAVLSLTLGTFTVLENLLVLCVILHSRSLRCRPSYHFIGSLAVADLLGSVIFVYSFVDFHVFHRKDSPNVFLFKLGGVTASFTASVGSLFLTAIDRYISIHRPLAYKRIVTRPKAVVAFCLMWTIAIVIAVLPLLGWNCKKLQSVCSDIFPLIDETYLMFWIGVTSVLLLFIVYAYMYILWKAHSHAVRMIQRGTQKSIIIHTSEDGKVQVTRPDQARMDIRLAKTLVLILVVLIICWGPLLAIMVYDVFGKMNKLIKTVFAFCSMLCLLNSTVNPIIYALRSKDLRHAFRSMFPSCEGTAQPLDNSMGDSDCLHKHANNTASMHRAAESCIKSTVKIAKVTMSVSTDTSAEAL
T3 sequence (P20272 whole entry): as above
T4 sequence (P21554 whole entry): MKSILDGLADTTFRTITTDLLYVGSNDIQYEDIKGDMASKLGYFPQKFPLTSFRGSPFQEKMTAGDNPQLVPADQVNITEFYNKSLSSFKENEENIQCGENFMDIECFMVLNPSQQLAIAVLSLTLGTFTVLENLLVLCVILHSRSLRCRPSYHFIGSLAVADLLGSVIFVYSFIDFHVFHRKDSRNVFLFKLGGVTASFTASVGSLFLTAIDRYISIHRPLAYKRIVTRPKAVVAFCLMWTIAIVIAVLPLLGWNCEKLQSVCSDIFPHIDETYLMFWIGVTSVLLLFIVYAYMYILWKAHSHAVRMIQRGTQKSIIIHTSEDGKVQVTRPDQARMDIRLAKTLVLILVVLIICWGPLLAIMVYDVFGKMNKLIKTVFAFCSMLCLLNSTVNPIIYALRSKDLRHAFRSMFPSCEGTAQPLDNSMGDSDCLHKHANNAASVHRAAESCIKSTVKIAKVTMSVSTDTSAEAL

Compound | Max. Disp. %, 3H-SR141716A [1, 6] | Max. Disp. %, 3H-CP55940 ([2]; human CB2 transfected cells) | Emax, GTP-γ-[35S] in Whole Rat Brain [3, 8] | EC50 [3, 9] | Ki [1, 10] | Max. Disp. %, 3H-CP55940 [1, 11] | Ki [1, 12] | Ki [2, 18] | Emax [3, 8] | further results
Cc1c(C(=O)NC(C)CO)nn(-c2ccc(Cl)cc2Cl)c1-c1ccc(Cl)cc1 (single isomer, unassigned) [MF9725-105-38] | 96.8% | 47.5% | −83.8 | 294000 nM | – | – | – | – | – | Ki ([1]; Ki, displacement of 3H-CP55940, whole rat brain membranes, radioligand 3H-CP55940, Tables 1 and 2): 117 nM; Ki [1, 5]: 123 nM; Ki [2, 7]: 5900 nM
Cc1c(C(=O)NC(C)CO)nn(-c2ccc(Cl)cc2Cl)c1-c1ccc(Cl)cc1 (single isomer, unassigned) [MF9725-106-39] | 100% | 52.1% | −83.0 | 292000 nM | 117 nM | 89.7% | – | – | – | Ki [1, 5]: 99.8 nM; Ki [2, 7]: 1770 nM
CCNC(=O)c1nn(-c2ccc(Cl)cc2Cl)c(-c2ccc(Cl)cc2)c1C [MF9725-54C] | 100% | 59.6% | – | 30300 nM | 46.3 nM | 91.4% | 61.5 nM | 3110 nM | -46.9% | Ki [4, 13]: 137 nM; Ki [4, 14]: 35.1 nM; Ki ([4]; displacement of 3H-WIN55212-2, human CB1 transfected cells, radioligand 3H-WIN55212-2, Table 3): 185 nM; Max. Disp. %, 3H-CP55940 [4, 15]: 66.7%; Max. Disp. %, 3H-SR141716A [4, 16]: 95.3%; Max. Disp. %, 3H-WIN55212-2 [4, 17]: 78.8%
CCCNC(=O)c1nn(-c2ccc(Cl)cc2Cl)c(-c2ccc(Cl)cc2)c1C [MF9725-55C] | 100% | 68.3% | – | 11100 nM | 29.9 nM | 97.4% | 23.6 nM | 2960 nM | -35.7% | Ki [4, 13]: 33.7 nM; Ki [4, 14]: 6 nM; Max. Disp. %, 3H-CP55940 [4, 15]: 81.9%; Max. Disp. %, 3H-SR141716A [4, 16]: 93.4%; Max. Disp. %, 3H-WIN55212-2 [4, 17]: 73.3%
CCCCCNC(=O)c1nn(-c2ccc(Cl)cc2Cl)c(-c2ccc(Cl)cc2)c1C [MF9725-67-17] | 100% | 75.9% | – | – | 11.4 nM | 91.4% | 6.83 nM | 1110 nM | – | Ki ([1]; Ki, displacement of 3H-WIN55212-2, whole rat brain membranes, radioligand 3H-WIN55212-2, Tables 1 and 2): 12.6 nM; Max. Disp. %, 3H-WIN55212-2 ([1]; whole rat brain membranes, radioligand 3H-WIN55212-2, Tables 1 and 2): 94.4%; Max. Disp. %, 3H-CP55940 [4]: 87.1%; Max. Disp. %, 3H-SR141716A [4]: 89.9%; Max. Disp. %, 3H-WIN55212-2 [4]: 89.9%; Ki ([4]; displacement of 3H-CP55940): 14.6 nM; Ki ([4]; displacement of 3H-SR141716A): 6.35 nM; Ki ([4]; displacement of 3H-WIN55212-2): 18.7 nM; EC50 ([3]; EC50, GTP-γ-[35S] in Whole Rat Brain, whole rat brain membranes, inverse agonist/antagonist activity): 5270 nM; Emax [3]: -7.4%
Cc1c(C(=O)NCCCO)nn(-c2ccc(Cl)cc2Cl)c1-c1ccc(Cl)cc1 [MF9725-94-31] | 100% | 43.1% | – | 241000 nM | 160 nM | 86.6% | 156 nM | 1250 nM | -83.3% | –
Cc1c(C(=O)NCCCCO)nn(-c2ccc(Cl)cc2Cl)c1-c1ccc(Cl)cc1 [MF9725-95-31] | 97.6% | 54.3% | – | 304000 nM | 154 nM | 88.7% | – | 5720 nM | -79.5% | –
Cc1c(C(=O)NN)nn(-c2ccc(Cl)cc2Cl)c1-c1ccc(Cl)cc1 [MF9879-34-8] | 85.9% | 80.8% | – | – | 374 nM | 68.4% | 602 nM | 12100 nM | -71.7% | EC50 ([3]; whole rat brain membranes, value above highest concentration tested (footnote), read-out: EC50, GTP-γ-[35S] in Whole Rat Brain, value is above highest concentration on displacement curve): ≥ 419000 nM
SR144528 [reference compound] | 68.6% | 88.4% | −27.7 | – | – | 84.7% | – | – | – | Max. Disp. %, 3H-CP55940 ([1]; whole rat brain, 3H-CP55940, Table 4, parallel synthesis analogs, n = 1): 84.7%; Max. Disp. %, 3H-SR141716A ([1]; whole rat brain, 3H-SR141716A, Table 4, parallel synthesis analogs, n = 1): 68.6%

— US6825209B2, “Compounds having unique CB1 receptor binding selectivity and methods for their production and use” (Research Triangle Institute, priority 2002, dated 2004)
